Data taken from patent US10717781B2, “Neuroinvasion inhibitor” (National Cancer Center, priority 2008, dated 2020).
Counter-ions that a name gives are not always drawn.

Tests used:
[1] = test system: pancreatic cancer; conditions: pancreatic cancer patients, foreign phase III clinical trial data, cited from earlier work
[2] = test system: neural invasion of human pancreatic cancer cells in mouse sciatic nerve; test: administration of inhibitors to neural invasion model mice; assay type: in vivo
Method: Six-week-old male mice with severe combined immune deficiency (SCID) were used. The mice were anesthetized by administering barbital at 50 mg/kg into their peritoneal cavities. After exposing the left sciatic nerves, 2.5 μl of a suspension of cancer cells (1.0×10^4 cells/μl) was injected directly into the sciatic nerves using a microsyringe and 30-gauge needle. Upon assessment, the sciatic nerves into which cancer cells were injected were isolated. When tissue samples were prepared, the nerves were allowed to stand in 4% paraformaldehyde at 4° C. for one whole day and night to fix them. The fixed sciatic nerves were sliced into 3-μm sections, and then immunostained or hematoxylin/eosin-stained to measure the distance of neural invasion. Using an objective micrometer (Sankei Co.), the longitudinal length of the whole tumor was measured in the longitudinally sliced thin sections of the nerves to determine the distance of neural invasion. Tissue mRNA was extracted from tissue samples prepared by crushing with a Multi-Beads Shocker (Yasui Kikai Co.) immediately after harvesting the tissues.
The distance of neural invasion is an important factor in the mode of invasion of pancreatic cancer. […]
The analysis software used was STATVIEW 5.0. The difference between average values was evaluated by two-sided Student-t test. […]

[3] = test system: human pancreatic cancer cell lines; test: chemotaxis assay; assay type: cell-based; conditions: hrIL6 0, 1, 10, 100 ng/ml, 24 hours (FIG. 2C)
Method: (§1) Capan-1 and BxPC-3, which are human pancreatic cancer cell lines, were purchased from the American Type Culture Collection (ATCC). According to the manual recommended by ATCC, the cells were cultured and passaged using an incubator capable of maintaining a temperature of 37° C. under 5% CO2.
Cell culture inserts (BD Falcon) having 8-μm pores in the bottom surface were inserted into 24 wells. The cell culture inserts and wells were used as upper and lower chambers, respectively. Human recombinant IL-6 (hrIL6) vehicles were prepared at 0, 1, 10, and 100 ng/ml using hrIL6 (R&D systems) and serum-free culture medium. 600 μl of the hrIL6 vehicles was added to the lower chambers. 100 μl of a cell suspension (2×10^6 cells/ml) was added to the upper chambers. After 24 hours of incubation, cells that passed through the pores were counted. This assay was carried out twelve times for each group. The cell count was divided by the average number of cells that passed through the pores at 0 ng/ml hrIL6. The resulting normalized values were recorded.
(§2) Using human recombinant IL-6, the effects of IL-6 on growth activity, chemotactic activity, and migratory activity of the human pancreatic cancer cell lines were assessed by monitoring the cell count over time (FIGS. 2A and 2B), by chemotaxis assay (FIG. 2C), and by wound healing assay (FIG. 2D).

[4] = test system: human pancreatic cancer cell lines; test: cell growth activity by monitoring the cell count over time; assay type: cell-based; conditions: cell count over time (FIGS. 2A and 2B)
Method: as §1
Cells were harvested from dishes, and viable cells were counted using trypan blue and a hemocytometer.
as §2

[5] = test system: human pancreatic cancer cell lines; test: wound healing assay (migratory activity); assay type: cell-based; conditions: hrIL6 0, 1, 10, 100 ng/ml, 24 hours (FIG. 2D)
Method: as §1
1 ml of a cell suspension (3×10^5 cells/ml) was added to each of 24 wells, and incubated for 24 hours. Then, the medium was replaced with serum-free medium. After 24 hours of incubation, a strip-shaped cell-free area was produced by scraping the central area of the well with a glass rod. After measuring the width of the strip, the medium was replaced with an hrIL6 vehicle at 0, 1, 10, or 100 ng/ml. After 24 hours of incubation, changes in the width of the cell-free area were determined. This assay was carried out twelve times for each group. The determined values were divided by the average width change at 0 ng/ml hrIL6. The resulting normalized values were recorded.
as §2

[6] = test system: human pancreatic cancer Capan-1 cell line; test: Western blotting of intracellular signaling (pSTAT3, pErk1/2, pAkt); assay type: cell-based
Method: Western blotting was carried out using the following primary antibodies: anti-phosphorylated STAT3 antibody (Santa Cruz), anti-STAT3 antibody (Santa Cruz), anti-phosphorylated Erk1/2 antibody (Cell Signaling), anti-Erk1/2 antibody (Cell Signaling), anti-phosphorylated Akt antibody (Cell Signaling), anti-Akt antibody (Cell Signaling), and anti-actin antibody (Santa Cruz). Fluorescent immunostaining was carried out using the following primary antibodies: anti-S100 antibody (DAKO) and anti-mouse IL-6 antibody (Santa Cruz). Nuclear staining was performed using DRAQ5 (AXXORA). Immunostaining was performed using an anti-phosphorylated STAT3 antibody (Santa Cruz).
Cell lysates were prepared using a lysate buffer (20 mM Hepes-NaOH (pH 7.0), 0.5% NP-40, 15% Glycerol, 300 mM NaCl, 1 mM EDTA, 10 mM NaF). The protein concentration was determined using a BCA Protein Assay Kit (PIERCE). Then, cell lysates containing […] of protein were electrophoresed in 7.5% or 12% acrylamide gels. The proteins were transferred onto a polyvinylidene difluoride membrane (Millipore). An antibody was added to the membrane, and the protein expression was visualized using Enhanced Chemiluminescence Reagent (Amersham Biosciences).
Using human recombinant IL-6 (rhIL6), the effect of IL-6 on intracellular signaling of the human pancreatic cancer Capan-1 cell line was assessed by Western blotting for phosphorylated STAT3 (pSTAT3) (FIG. 3A), phosphorylated Erk1/2 (pErk1/2) (FIG. 3B), and phosphorylated Akt (pAkt) (FIG. 3C). […] In contrast, IL-6 had no effect on the expression of phosphorylated Akt.

Nc1ccn([C@@H]2O[C@H](CO)[C@@H](O)C2(F)F)c(=O)n1 [gemcitabine hydrochloride]
efficacy rate of palliative effects ([1]; first drug of choice): 23.8%
median survival time [1]: 5.7 months
one-year survival rate [1]: 18%

anti-human IL-6 receptor antibody: anti-IL-6 receptor antibody (tocilizumab; Chugai Pharmaceutical Co.), which inhibits the human IL-6 receptor; humanized PM-1 antibody
neural invasion (invasion distance) ([2]; 5 μg/g twice a week for two weeks from one week after injection of cancer cells, assessed at three weeks, vs human IgG (FIG. 9B)): suppression of neural invasion

IL-6: Human recombinant IL-6 (R&D systems), cytokine added to pancreatic cancer cell lines
effect on chemotactic activity [3]: enhances
effect on cell growth [4]: no effect
effect on migratory activity [5]: enhances
expression of phosphorylated Akt ([6]; Capan-1 (FIG. 3C)): no effect
intracellular expression level of phosphorylated STAT3 protein ([6]; Capan-1, 15 minutes after addition of rhIL6 (FIG. 3A)): clearly elevated
intracellular expression level of phosphorylated Erk1/2 proteins ([6]; Capan-1, one hour after addition of rhIL6 (FIG. 3B)): clearly elevated

N#C/C(=C/c1ccc(O)c(O)c1)C(=O)NCc1ccccc1 [AG490]
neural invasion (invasion distance) ([2]; 0.5 mg intraperitoneally every day for 12 days from two days after injection of cancer cells, assessed at two weeks, vs 1% DMSO (FIG. 9A)): suppression of neural invasion
